From ChEMBL document CHEMBL1201862, “PubChem BioAssay data set” (2004)
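96-well plates; 48 h exposure; 5 concentrations. Endpoints by linear interpolation between flanking doses. Not reached: highest tested concentration assigned. Here, GI50 denotes the concentration required for 50% inhibition of growth.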 Calls of active or inactive are those of the source. Cut-off read from the data, not from the text of the source: active = GI50 up to about 1.1 µM and inactive = higher.

Legend:
Test in all cases: DTP human tumour cell line panel, 48 h
U-251 = tested on: U-251
SF-539 = tested on: SF-539
RXF 393 = tested on: RXF 393
DU-145 = tested on: DU-145
HCT-15 = tested on: HCT-15
PC-3 = tested on: PC-3
SR = tested on: SR
BT-549 = tested on: BT-549
NCI-H23 = tested on: NCI-H23
HCC 2998 = tested on: HCC 2998
TK-10 = tested on: TK-10
A549 = tested on: A549
SK-MEL-5 = tested on: SK-MEL-5
CAKI-1 = tested on: CAKI-1
A498 = tested on: A498
MDA-MB-231 = tested on: MDA-MB-231
786-0 = tested on: 786-0
UO-31 = tested on: UO-31
ACHN = tested on: ACHN
OVCAR-8 = tested on: OVCAR-8

| Structure (SMILES) | GI50 (U-251) | GI50 (SF-539) | GI50 (RXF 393) | GI50 (DU-145) | GI50 (HCT-15) [µM] | GI50 (PC-3) | GI50 (SR) | GI50 (BT-549) | GI50 (NCI-H23) | GI50 (HCC 2998) | GI50 (TK-10) | GI50 (A549) | GI50 (SK-MEL-5) | GI50 (CAKI-1) | GI50 (A498) | GI50 (MDA-MB-231) | GI50 (786-0) | GI50 (UO-31) | GI50 (ACHN) | GI50 (OVCAR-8) |
| --- | --- | --- | --- | --- | --- | --- | --- | --- | --- | --- | --- | --- | --- | --- | --- | --- | --- | --- | --- | --- |
| O=C1/C(=C/c2ccccc2)CN(C(=O)CCN2CCCC2)C/C1=C\c1ccccc1 | 0.794 µM (active) | 1.85 µM (inactive) | 2.33 µM (inactive) | 4.48 µM (inactive) | 1.73 | 0.724 µM (active) | 0.219 µM (active) | 1.56 µM (inactive) | 1.8 µM (inactive) | 1.77 µM (inactive) | 3.12 µM (inactive) | 3.91 µM (inactive) | 1.83 µM (inactive) | 3.98 µM (inactive) | 4.17 µM (inactive) | 1.51 µM (inactive) | 0.895 µM (active) | 2.77 µM (inactive) | 1.98 µM (inactive) | 1.53 µM (inactive) |
| c1cc(-c2ccc(-c3ccc(C4=NCCCN4)cc3)o2)ccc1C1=NCCCN1 | 33.3 µM (inactive) | 87.5 µM (inactive) | > 100 µM (inactive) | 89.3 µM (inactive) | 90.8 | 79.1 µM (inactive) | > 100 µM (inactive) | 35.4 µM (inactive) | 46 µM (inactive) | 92.9 µM (inactive) | 50.2 µM (inactive) | 8.2 µM (inactive) | 22.8 µM (inactive) | 74.1 µM (inactive) | 2.24 µM (inactive) | > 100 µM (inactive) | 61.5 µM (inactive) | > 100 µM (inactive) | > 100 µM (inactive) | 59.3 µM (inactive) |
| O=c1[nH]/c(=C/c2cccs2)c(=O)[nH]/c1=C/c1ccc(OCc2ccccc2)cn1 | 0.0631 µM (active) | 0.123 µM (active) | 0.0506 µM (active) | 0.0716 µM (active) | < 0.015 | 0.0431 µM (active) | < 0.0142 µM (active) | 0.0239 µM (active) | 0.0398 µM (active) | 0.0562 µM (active) | 1.74 µM (inactive) | 0.144 µM (active) | 0.0515 µM (active) | 0.0312 µM (active) | 0.0374 µM (active) | 0.219 µM (active) | 0.061 µM (active) | 0.0207 µM (active) | 3.24 µM (inactive) | 0.197 µM (active) |
| Cc1c[nH]c(C(=O)O)c1-c1ccc2c(-c3ccccc3)nc3ccccc3n12 | 48.3 µM (inactive) | 19.5 µM (inactive) | 18.2 µM (inactive) | 36.7 µM (inactive) | 30 | 27.4 µM (inactive) | 33 µM (inactive) | 30.6 µM (inactive) | 35.4 µM (inactive) | 13.7 µM (inactive) | 29.2 µM (inactive) | 33.7 µM (inactive) | 30.5 µM (inactive) | 34.7 µM (inactive) | 13.9 µM (inactive) | 32.9 µM (inactive) | 33.3 µM (inactive) | 34.4 µM (inactive) | 52.4 µM (inactive) | 22.6 µM (inactive) |
| COc1cc2c(cc1C)NC(=O)/C2=C/c1c(Cl)[nH]c2cc(C)c(OC)cc12 | 2.86 µM (inactive) | 0.395 µM (active) | 6.81 µM (inactive) | 2.36 µM (inactive) | 3.72 | 4.23 µM (inactive) | 0.428 µM (active) | 1.36 µM (inactive) | 1.91 µM (inactive) | 4.11 µM (inactive) | 7.1 µM (inactive) | 4.55 µM (inactive) | 2.62 µM (inactive) | 4.04 µM (inactive) | 8.73 µM (inactive) | 13.2 µM (inactive) | 3.23 µM (inactive) | 10 µM (inactive) | 2.25 µM (inactive) | 5.98 µM (inactive) |
